According to US8889731B2, “Compounds, compositions and methods for repelling blood-feeding arthropods and deterring their landing and feeding” (Contech Enterprises Inc., priority 2007, dated 2014):
Like-named read-outs stand apart in the source and are kept apart here.

Key:
Aedes aegypti = test: Arm-in-cage repellent/deterrent bioassay on exposed human forearm (modified WHO protocol), Aedes aegypti; assay type: in vivo; conditions: for pest or weed control at 0.1 mg/cm2 / pest or weed control at 0.5 mg/cm2: Aedes aegypti, topical, (C-T)/C x 100 at time of failure, read-out: Percent repellence
Method: (§1) Candidate repellents and deterrents were bioassayed according to a modified protocol from the World Health Organization (1996). At least 1 hour prior to each bioassay, 75 host-seeking non blood-fed, nulliparous, 5- to 8-day-old female Aedes aegypti, Anopheles gambiae or Culex quinquefasciatus were placed into a wood-framed cage (26.5 cm on each side and 42.5 cm high) with a wooden floor, screened mesh sides and top, and a clear acrylic front fitted with a cotton stockinette sleeve (10 cm diameter). The test subject's arm was covered with an elbow-length polyethylene glove with an excised patch (16.6 cm long, 6 cm wide) to expose the ventral forearm of the test subject. Candidate deterrents were formulated in mineral (paraffin) oil and applied to the exposed forearm 5 min prior to inserting the arm into the cage. The inserted arm remained in the cage for 3 min every 30 min. Prior to each 3-min bioassay period, the hand of the untreated arm was inserted into the cage to ascertain that it received 10 bites within 30 sec as an indication of “biting pressure”.
(§2) The bioassay was terminated when the treated arm received ≧2 bites in one 3-min bioassay period or one bite in each of two consecutive bioassay periods. The time elapsed from experiment initiation to first bite was recorded as deterrent failure or complete protection time.
(§3) N,N-diethyl-m-toluamide formulated in ethanol at a corresponding dose served as a positive control, and mineral oil by itself served as a negative control. On each day, only one candidate compound was tested, ensuring that any residual material in the chamber had disappeared before the next bioassay.
To determine the repellence and deterrence of 8-allylsulfanyloctan-1-ol against Aedes aegypti, a 5%, 10% or 25% formulation of 8-allylsulfanyloctan-1-ol in mineral oil was applied in Experiments 1-3 at a dose of 1.5 mg (total composition) per cm^2 to the skin of the test person, and was bioassayed according to the protocol described under EXAMPLE 2. In Experiment 4, mineral oil by itself served as a negative control and was bioassayed at the same dose (1.5 mg per cm^2) as in Experiments 1-3. Each of Experiments 1-4 was replicated four times.
To compare the repellence and deterrence against Aedes aegypti caused by 8-allylsulfanyloctan-1-ol as a single active ingredient and by 8-allylsulfanyloctan-1-ol in combination with vanillin as a second active ingredient, we tested a 6.7% emulsion of vanillin (Experiment 14), a 6.7% emulsion of 8-allylsulfanyloctan-1-ol (Experiment 15), and a 13.4% emulsion of 8-allylsulfanyloctan-1-ol plus vanillin (1:1 ratio) (Experiment 16). 8-Allylsulfanyloctan-1-ol and vanillin were formulated in Emulsion No. 1 (see EXAMPLE 9). In each of Experiments […], test stimuli were applied at a dose of 1.5 mg per cm^2 to the skin of the test person, and were bioassayed according to the protocol described under EXAMPLE 2. In Experiment 17, Emulsion No. 1 served as a positive control and was tested at the same dose (1.5 mg per cm^2) as in Experiments 14-16.
To be able to compare the repellence and deterrence caused by N,N-diethyl-m-toluamide and by 8-allylsulfanyloctan-1-ol plus vanillin in Emulsion No. 1 (EXAMPLE 9), Experiment 26 tested a 6.7% formulation of N,N-diethyl-m-toluamide in ethanol (the best formulant for DEET) for protection from bites by Aedes egypti. In each replicate, a dose of 1.5 mg per […] was applied to the skin of the test person and bioassayed according to the protocol described under EXAMPLE 2.
To be able to further compare the deterrence caused by N,N-diethyl-m-toluamide with that caused by 8-allylsulfanyloctan-1-ol plus vanillin, Experiment 27 tested a 10.4% formulation of N,N-diethyl-m-toluamide in ethanol, and Experiment 28 tested 8-allylsulfanyloctan-1-ol (10.4%) plus vanillin (7.9%) in Emulsion No. 2 (EXAMPLE 10). […]

mosquitoes = test: General bioassay procedure with garlic oil, its components and fractions (mosquito species not given); assay type: in vivo
Method: as §1, §2, §3
Garlic oil (Allium sativum—Mexico; Clearwater Soap Works, Box 1775 RR1, Clearwater, BC V0E 1N0, Canada) was formulated in mineral oil and tested using the general bioassay procedure described in EXAMPLE 2 at a dose of 0.1 mg per cm^2 of arm surface. It expressed repellence and deterrence for ˜30 min.
Some of the 10 components in FIG. 1 were bioassayed singly (see general bioassay procedure) and in various combinations, all of which were as deterrent to mosquitoes as garlic oil.
To determine the most deterrent component(s) in garlic oil, it was fractionated by HPLC into four fractions, each containing one or more of the EAD-active components (compounds 1-10 in FIG. 1 and 11-14 in TABLE 2). Each fraction was then bioassayed and shown to be similarly effective in repelling and deterring mosquitoes.
(§4) Components with high molecular weight (>250 daltons) are advantageous in that they: 1) dissipate slowly from treated surfaces; 2) provide long-lasting protection against mosquitoes and 3) convey little, if any, offensive smell. The relative abundance of such components was enhanced by treating garlic oil under vacuum, thus stripping away lower-boiling components. In GC-EAD analyses of the high-boiling residue, four components elicited responses from mosquito antennae.

[1] = system: male or female Aedes aegypti antennae; test: Coupled gas chromatographic-electroantennographic detection (GC-EAD) of garlic oil extract
Method: FIG. 1 illustrates flame ionization detector (FID) and electroantennograhic detector (EAD: male or female Aedes aegypti antennae) responses to aliquots of the low boiling temperature portion of garlic oil extract. Chromatography: Hewlett Packard (HP) gas chromatograph equipped with a fused silica column (30 m×0.32 mm ID) coated with DB-5; injector and detector temperature: 250° C.; temperature program: 50° C.
Aliquots of garlic oil extracts were then subjected to coupled gas chromatographic-electroantennographic detection (GC-EAD) analysis. Fourteen components (10 shown in FIG. 1) elicited responses from female or male mosquito antennae. Some of these components were isolated by high-performance liquid chromatography (HPLC) for identification by nuclear magnetic resonance spectroscopy (NMR). Other components were identified (compounds 11-14 in TABLE 2) by coupled GC-mass spectrometry and by retention index calculations. […] Four of the 10 components in FIG. 1 were tentatively identified by comparing their mass spectra and retention indices with those reported in the literature (Block et al. 1998).
as §4

Anopheles gambiae = test: Arm-in-cage repellent/deterrent bioassay on exposed human forearm (modified WHO protocol), Anopheles gambiae; assay type: in vivo
Method: as §1, §2, §3
(§5) To determine the repellence and deterrence of 8-allylsulfanyloctan-1-ol against Anopheles gambiae, a 2%, 5% or a 10% formulation of 8-allylsulfanyloctan-1-ol in mineral oil was applied in Experiments 5-7 at a dose of 1.5 mg per cm^2 to the skin of the test person, and was bioassayed according to the protocol described under EXAMPLE 2. In Experiment 8, mineral oil by itself served as a negative control and was tested at the same dose (1.5 mg per cm^2) as in Experiments 5-7. Each of Experiments 5-8 was replicated 4 times.
To be able to compare the repellence and deterrence caused N,N-diethyl-m-toluamide (DEET), and by 8-allylsulfanyloctan-1-ol, Experiment 13 tested a 2% formulation of N,N-diethyl-m-toluamide in ethanol (the best formulant for this compound) for protection from bites by Anopheles gambiae. A dose of 1.5 mg per cm^2 was applied to the skin of the test person and bioassayed according to the protocol described under EXAMPLE 2.
To compare the repellence and deterrence against Anopheles gambiae caused by 8-allyl-sulfanyloctan-1-ol as a single active ingredient and by 8-allylsulfanyloctan-1-ol in combination with vanillin as a second active ingredient, we tested a 6.7% emulsion of vanillin (Experiment 18), a 6.7-% emulsion of 8-allylsulfanyl-octan-1-ol (Experiment 19) and a 13.4% emulsion of 8-allylsulfanyloctan-1-ol plus vanillin (1:1 ratio) (Experiment 20). 8-Allylsulfanyloctan-1-ol and vanillin were formulated in Emulsion No. 1 (see EXAMPLE 9). In each of Experiments 18-20, test stimuli were applied at a dose of 1.5 mg per cm^2 to the skin of the test person, and were bioassayed according to the protocol described under EXAMPLE 2. In Experiment 21, Emulsion No. 1 served as a positive control and was tested at the same dose (1.5 mg per cm^2) as in experiments 18-20. Each of Experiments 18-21 was replicated three times.

Culex quinquefasciatus = test: Arm-in-cage repellent/deterrent bioassay on exposed human forearm (modified WHO protocol), Culex quinquefasciatus; assay type: in vivo; conditions: 6.7% single active in Emulsion No. 1 (FIG. 9 legend: 2.0%), 1.5 mg per cm^2, Experiments 22, 23
Method: as §1, §2, §3
as §5, with “Culex quinquefasciatus,” for “Anopheles gambiae,”, “2% and” for “2%,”, “9-11” for “5-7”, “12,” for “8,”, “[…].” for “5-7.”, “9-11” for “5-8”
To compare the repellence and deterrence against Culex quinquefasciatus caused by 8-allylsulfanyloctan-1-ol as a single active ingredient and by 8-allylsulfanyloctan-1-ol in combination with vanillin as a second active ingredient, we tested a 6.7% emulsion of vanillin (Experiment 22), a 6.7% emulsion of 8-allylsulfanyloctan-1-ol (Experiment 23) and a 13.4% emulsion of 8-allylsulfanyloctan-1-ol plus vanillin (1:1 ratio) (Experiment 24). 8-Allylsulfanyloctan-1-ol and vanillin were formulated in Emulsion No. 1 (see EXAMPLE 9). In each of Experiments […], test stimuli were applied at a dose of 1.5 mg per cm^2 to the skin of the test person, and were bioassayed according to the protocol described under EXAMPLE 2. In Experiment 25, Emulsion No. 1 served as a positive control and was tested at the same dose (1.5 mg per cm^2) as in Experiments 22-24. Each of Experiments 22-25 was replicated three times.

[2] = Dosage >0.1 mg/cm^2 (so in the source)
[3] = Dosage 0.1 mg/cm^2, 0 = immediate failure

SMILES	pest or weed control at 0.1 mg/cm2 (Aedes aegypti; Dosage 0.1 mg/cm^2) [%]	Failure time (Aedes aegypti; [3]) [min]	pest or weed control at 0.5 mg/cm2 (Aedes aegypti; Dosage 0.5 mg/cm^2) [%]	Failure time (Aedes aegypti; Dosage 0.5 mg/cm^2) [min]	further results
C=CCSSCCCSSCC=C [Compound 11, 4,5,9,10-tetrathiatrideca-1,12-diene]	85	0	–	–	pest or weed control at 0.1 mg/cm2 (Aedes aegypti; [2]): 92%; Failure time (Aedes aegypti; [2]): 67.7 min; repellent and deterrent effect in bioassays (in words) (mosquitoes): strong repellent and deterrent effect; electroantennographic (EAD) response of mosquito antennae [1]: Antennal stimulatory
C=CCSSCC1CCC=CS1 (centres unmarked) [Compound 13, 2-(2,3-dithia-5-hexenyl)-3,4-dihydro-2(H)-thiopyran]	–	–	–	–	repellent and deterrent effect in bioassays (in words) (mosquitoes): strong repellent and deterrent effect; electroantennographic (EAD) response of mosquito antennae [1]: Antennal stimulatory
C=CCSSCC1CC=CSC1 (centres unmarked) [Compound 14, 3-(2,3-dithia-5-hexenyl)-3,4-dihydro-2(H)-thiopyran]	–	–	–	–	repellent and deterrent effect in bioassays (in words) (mosquitoes): strong repellent and deterrent effect; electroantennographic (EAD) response of mosquito antennae [1]: Antennal stimulatory
C=CCSSc1ccccc1SSCC=C [Compound 15, 1,2-bis-(1,2-dithia-4-pentenyl)-benzene]	92	34	–	–	–
C=CCSSC/C=C/c1ccccc1 [Compound 16, (E)-4,5-dithia-1,7-octadien-1-yl-benzene]	89	35	92	36	–
C=CCSCCCSCC=C [Compound 17, 4,8-dithiaundeca-1,10-diene]	89	0	97	36	–
C=CCSCCCCCCSCC=C [Compound 18, 4,11-dithiatetradeca-1,13-diene]	–	–	93	67	–
C=CCSCCCCCCCCSCC=C [Compound 19, 4,13-dithiahexadeca-1,15-diene]	93	0	97	102	–
C=CCOCCCCCCCCCCOCC=C [Compound 20, 1,10-bis-allyloxy-decane]	81	0	–	–	had any repellence or deterrence in bioassays (Aedes aegypti; see TABLE 2, 0.1 mg/cm^2): neither
C=CCSCCCCCCCCCO [Compound 22, 9-allylsulfanylnonan-1-ol]	–	–	–	–	Failure time (Aedes aegypti; Dosage 0.05 mg/cm^2): 33 min
C=CCSCCCCCCC(C)O (centres unmarked) [Compound 23, 8-allylsulfanyloctan-2-ol]	–	–	–	–	Failure time (Aedes aegypti; Dosage 0.05 mg/cm^2): 99 min
CCN(CC)C(=O)c1cccc(C)c1 [N,N-diethyl-m-toluamide, reference compound]	–	–	–	–	protection from bites, average duration (Aedes aegypti; 6.7% formulation in ethanol, 1.5 mg per cm^2, Experiment 26): 197 min; protection from bites, average duration (Aedes aegypti; 10.4% formulation in ethanol, 1.5 mg per cm^2, Experiment 27): 231 min; duration of protection relative to 2% 8-allylsulfanyloctan-1-ol (297 min) (Anopheles gambiae; 2% DEET in ethanol vs 2% 8-allylsulfanyloctan-1-ol in mineral oil): one sixth; protection from bites, average duration (Anopheles gambiae; 2% formulation in ethanol, 1.5 mg per cm^2, Experiment 13): 66 min
COc1cc(C=O)ccc1O [vanillin]	–	–	–	–	protection from bites, average duration (Aedes aegypti; 6.7% single active in Emulsion No. 1, 1.5 mg per cm^2, Experiments 14, 15): 44 min; protection from bites, average duration (Anopheles gambiae; 6.7% single active in Emulsion No. 1 (FIG. 8 legend: 2.0%), 1.5 mg per cm^2, Experiments 18, 19): 110 min; protection from bites, average duration (Culex quinquefasciatus): 88 min
